Patent US20040266862A1, “Method of improving animal tissue quality by supplementing the animal diet with mixed tocotrienols” (priority 2003, published 2004)
Marks after values point to notes of the source that are not given here.

Key:
Assay type in all cases: in vivo
[1] = system: chickens; assay: 2002 poultry feed test: TBARS content of cooked ground chicken breasts; settings: 300 ppm in diet
Source text: (§1) Applicants also assessed the effects of antioxidant supplementation on meat quality in an experiment in which meat from chickens fed one of four dietary treatments was compared. On Jul. 25, 2002, day-old chicks were obtained from a commercial company. The birds were housed in a brooder until Aug. 11, 2002. On Aug. 11, forty-eight birds were randomly allocated to one of four pens (twelve birds per pen). Birds in each pen were offered ad libitum access to one of four treatment diets: control, 300 ppm AT, 300 ppm GT or 150 ppm MT. The MT premix contained a commercially available MT supplement (7.5% alpha-, 12.3% gamma- and 3.0% delta-tocotrienol and 7.2% alpha-tocopherol) mixed with ground corn as the carrier. The total MT premix (ground corn plus MT supplement) represented 2.5% w/w of the finished MT supplemented feed.
(§2) On Sep. 13, 2002 (seven weeks of age) the birds were harvested, identified and frozen at −20C. The birds were stored frozen at −20C for 136-159 days post slaughter. On days 136, 156, 157, 158 and 159 (where available) two birds per dietary treatment were thawed in cold water. Meat was removed from the breasts (pectoralis major muscles) and thighs. Breast meat from each chicken was ground through a 3 mm disc in a Krups Butcher Shop 150W Professional Power Meat Grinder. Thigh meat from two chickens was combined (for days 156, 157, 158 and 159; day 136 thigh meat was kept separate for each bird) and ground in a similar manner. Patties were made (10 g for breast; 60 g for thighs) using a 100×15 mm Petri dish as a mold.
Raw ground chicken breast and thigh patties were cooked in a pre-warmed George Foreman grill for five minutes per breast patty and four minutes per thigh patty. Cooked patties were allowed to cool under refrigeration and then quartered (day 136) or halved (days 156, 157, 158 and 159). Each quarter or half was stored at 2.2C in zip lock baggies for a designated period of time. One quarter was used per sampling period. Sampling periods were 0 hours, 4 hours, 26 hours and 48 hours. Thiobarbituric acid reacting substances (TBARS) analyses was performed according to Ahn et al., and the results are shown in the following two tables.

[2] = system: swine; assay: 2002 swine feed test: fat and TBARS content of raw ground pork
Source text: Applicants conducted a second swine feeding trial to further determine the effects on meat quality of supplementation of a swine diet with alpha-tocopherol (AT), gamma-tocopherol (GT) or mixed tocotrienols (MT). Seventy-two barrows (˜75 lbs.) were transported to the Pioneer Livestock Nutrition Center (PLNC) and randomly placed into individual pens with water and feed provided ad libitum. The pigs received a common diet for seven days. On the eighth day the pigs were weighed individually and a uniform group of sixty pigs with an average body weight of about 75 pounds was selected. The pigs were randomly assigned one of five dietary treatments with 12 pigs per treatment. The feeding trial was initiated on Mar. 12, 2002 and ended on Jun. 19, 2002. The pigs were fed a corn-soybean meal diet formulated to provide adequate levels of all nutrients. In addition, one of five dietary treatments was assigned to each group: control, 300 ppm AT, 450 ppm GT, 150 ppm MT, and 300 ppm MT. To each diet a corn oil premix and a ground corn premix were added with the corn oil premix as a carrier for the supplemental tocopherols and the ground corn premix as the carrier for the MT. The MT supplement was obtained commercially from Fuji Chemical Industries (U.S.A.) Inc. of Robbinsville, N.J., and contained 7.5% alpha-, 12.3% gamma- and 3.0% delta-tocotrienol, as well as 7.2% alpha-tocopherol. Trimmed bellies were collected to measure the effects of dietary treatments on ground pork oxidation rate. The bellies were ground through a meat grinder and mixed. Four one-pound samples of each ground belly were placed on a retail meat tray and covered with oxygen permeable film. On each of days 1, 7, 10 and 16 post-grinding, one of the trays was opened and a sample submitted for TBARS (thiobarbituric acid reactive substances) determination, a measure of the extent of oxidation.

[3] = system: chickens; assay: 2002 poultry feed test: TBARS content of raw ground chicken breasts; settings: 300 ppm in diet
Source text: as §1, §2
(§3) Patties were quartered and each quarter was stored at 2.2C for a designated period of time. One quarter was used per sampling period. Sampling periods for the raw ground meat were day 0, day 3, day 7 and day 10. Thiobarbituric acid reacting substances (TBARS) analyses was performed on the raw ground chicken breasts and thighs according to the procedure of Ahn, D. U., D. G. Olson, C. Jo, X. Chen, C. Wu, and J. I. Lee, “Effect of Muscle Type, Packaging, and Irradiation on Lipid Oxidation, Volatile Production and Color in Raw Pork Patties”, Meat Sci. 49:27-39 (1998).

[4] = system: chickens; assay: 2002 poultry feed test: TBARS content of raw ground chicken thighs; settings: 300 ppm in diet
Source text: as §1, §2, §3

Row | Structure (SMILES) | TBARS content ([1]; 0 hours at 2.2C) | TBARS content ([1]; 4 hours at 2.2C) | TBARS content ([1]; 26 hours at 2.2C) | TBARS content ([1]; 48 hours at 2.2C) | TBARS content ([2]; Day 1 post-grinding, 450 ppm in diet) | TBARS content ([2]; Day 7 post-grinding, 450 ppm in diet) | TBARS content ([2]; Day 10 post-grinding, 450 ppm in diet) | TBARS content ([2]; Day 16 post-grinding, 450 ppm in diet) | TBARS content ([3]; Day 0 at 2.2C) | TBARS content ([3]; Day 3 at 2.2C) | TBARS content ([3]; Day 7 at 2.2C) | TBARS content ([3]; Day 10 at 2.2C) | TBARS content ([4]; Day 0 at 2.2C) | TBARS content ([4]; Day 3 at 2.2C) | TBARS content ([4]; Day 7 at 2.2C) | TBARS content ([4]; Day 10 at 2.2C) | TBARS content ([2]; Day 1 post-grinding, 300 ppm in diet) | TBARS content ([2]; Day 7 post-grinding, 300 ppm in diet) | TBARS content ([2]; Day 10 post-grinding, 300 ppm in diet) | TBARS content ([2]; Day 16 post-grinding, 300 ppm in diet)
1 | Cc1c(O)cc2c(c1C)O[C@](C)(CCC[C@H](C)CCC[C@H](C)CCCC(C)C)CC2 [GT, gamma-tocopherol] | 0.3809 mg Malonaldehyde/kg sample | 0.3443^b mg Malonaldehyde/kg sample | 0.4559^b mg Malonaldehyde/kg sample | 0.6120^b mg Malonaldehyde/kg sample | 0.19 mg Malonaldehyde/kg sample | 0.17 mg Malonaldehyde/kg sample | 0.32 mg Malonaldehyde/kg sample | 1.01^b mg Malonaldehyde/kg sample | 0.3022 mg Malonaldehyde/kg sample | 0.1926 mg Malonaldehyde/kg sample | 0.0860 mg Malonaldehyde/kg sample | 0.1428^b mg Malonaldehyde/kg sample | 0.2493 mg Malonaldehyde/kg sample | 0.2010 mg Malonaldehyde/kg sample | 0.1626 mg Malonaldehyde/kg sample | 0.3557 mg Malonaldehyde/kg sample | – | – | – | –
2 | Cc1c(C)c2c(c(C)c1O)CC[C@@](C)(CCC[C@H](C)CCC[C@H](C)CCCC(C)C)O2 [AT, alpha-tocopherol] | 0.3067 mg Malonaldehyde/kg sample | 0.4354^b mg Malonaldehyde/kg sample | 0.3366^b mg Malonaldehyde/kg sample | 0.4433^b mg Malonaldehyde/kg sample | – | – | – | – | 0.4569 mg Malonaldehyde/kg sample | 0.1214 mg Malonaldehyde/kg sample | 0.1243 mg Malonaldehyde/kg sample | 0.1151^b mg Malonaldehyde/kg sample | 0.3438 mg Malonaldehyde/kg sample | 0.1810 mg Malonaldehyde/kg sample | 0.2448 mg Malonaldehyde/kg sample | 0.4482 mg Malonaldehyde/kg sample | 0.13 mg Malonaldehyde/kg sample | 0.18 mg Malonaldehyde/kg sample | 0.34 mg Malonaldehyde/kg sample | 1.46^ab mg Malonaldehyde/kg sample
